Assay results reported in ChEMBL document CHEMBL5226302, “Small-Molecule Inhibitors Targeting the Canonical WNT Signaling Pathway for the Treatment of Cancer” (J Med Chem, 2021).
≈ marks a conversion by molar mass, not a printed value. One block for each compound: values may come before it.

Legend:
[1] = Solubility of the compound at pH 7.4; format: physicochemical; settings: buffer
[2] = Oral bioavailability in mouse at 2.5 mg/kg; format: ADME, organism-based; settings: in vivo
[3] = Efflux ratio of apparent permeability in human Caco-2 cells; format: ADME, cell-based
COLO 320 = test: Antitumor activity against human COLO 320 cells xenografted mouse model assessed as tumor growth inhibition at 300 mg/kg relative to control; format: functional; settings: read-out: TGI
[4] = Oral bioavailability in rat at 30 mg/kg; format: ADME, organism-based; settings: in vivo
[5] = Solubility of compound at pH 7.4; format: physicochemical; settings: buffer
[6] = Inhibition of Wnt pathway (unknown origin); parameters: species or system Homo sapiens
[7] = In vivo inhibition of MMTV-WNT1 in mouse model assessed as reduction in tumor growth at 0.3 mg/kg, po administered once daily for 2 weeks; format: functional; settings: 336 h
[8] = In vivo inhibition of MMTV-WNT1 in mouse model assessed as reduction in tumor growth at 1 mg/kg, po administered once daily for 2 weeks; format: functional; settings: 336 h
[9] = Oral bioavailability in rat at 2 mg/kg; format: ADME, organism-based; settings: in vivo
[10] = Oral bioavailability in mouse; format: ADME, organism-based; settings: in vivo
[11] = Oral bioavailability in dog; format: ADME, organism-based, Canis lupus familiaris; settings: in vivo
[12] = In vivo inhibition of MMTV-WNT1 in mouse model assessed as reduction in tumor growth at 3 mg/kg, po administered once daily for 2 weeks; format: functional; settings: 336 h
cells = settings: Homo sapiens, COLO 320DM
[13] = target: T1, Poly [ADP-ribose] polymerase tankyrase-2 (Homo sapiens, UniProt Q9H2K2); test: Binding affinity to TNKS2 (unknown origin) assessed as inhibition constant
T1 sequence (Q9H2K2 whole entry): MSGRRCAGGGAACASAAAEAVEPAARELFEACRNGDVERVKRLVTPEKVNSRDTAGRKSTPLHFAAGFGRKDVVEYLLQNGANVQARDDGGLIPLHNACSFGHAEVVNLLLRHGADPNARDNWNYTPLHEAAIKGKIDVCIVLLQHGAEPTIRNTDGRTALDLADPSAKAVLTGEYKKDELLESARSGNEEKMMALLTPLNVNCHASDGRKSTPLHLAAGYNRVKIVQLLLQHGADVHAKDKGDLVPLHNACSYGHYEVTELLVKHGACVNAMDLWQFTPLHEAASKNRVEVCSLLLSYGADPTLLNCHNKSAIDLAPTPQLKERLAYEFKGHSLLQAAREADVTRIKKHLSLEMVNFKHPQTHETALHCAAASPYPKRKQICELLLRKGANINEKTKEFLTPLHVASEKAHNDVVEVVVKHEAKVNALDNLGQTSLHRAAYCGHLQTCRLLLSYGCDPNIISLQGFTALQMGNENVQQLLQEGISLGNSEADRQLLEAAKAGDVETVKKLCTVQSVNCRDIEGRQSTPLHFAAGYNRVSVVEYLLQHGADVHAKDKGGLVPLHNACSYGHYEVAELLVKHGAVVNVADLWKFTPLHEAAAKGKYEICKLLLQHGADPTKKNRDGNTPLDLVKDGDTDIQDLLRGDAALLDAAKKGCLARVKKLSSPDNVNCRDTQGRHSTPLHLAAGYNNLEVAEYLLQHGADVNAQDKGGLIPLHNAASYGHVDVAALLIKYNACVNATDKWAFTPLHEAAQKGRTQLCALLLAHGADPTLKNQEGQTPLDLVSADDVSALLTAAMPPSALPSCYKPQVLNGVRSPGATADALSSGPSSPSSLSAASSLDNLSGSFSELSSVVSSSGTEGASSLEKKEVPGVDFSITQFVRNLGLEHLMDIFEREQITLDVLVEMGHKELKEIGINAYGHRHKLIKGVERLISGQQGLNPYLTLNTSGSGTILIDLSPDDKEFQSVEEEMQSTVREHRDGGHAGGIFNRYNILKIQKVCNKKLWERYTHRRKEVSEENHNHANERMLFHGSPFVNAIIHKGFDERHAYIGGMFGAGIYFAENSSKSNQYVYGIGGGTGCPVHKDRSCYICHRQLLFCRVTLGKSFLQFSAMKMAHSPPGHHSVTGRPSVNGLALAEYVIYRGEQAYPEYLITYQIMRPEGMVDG

[14] = target: T1, Poly [ADP-ribose] polymerase tankyrase-2; test: Binding affinity to human TNKS2 ARC4 assessed as dissociation constant
[15] = Inhibition of TBC (unknown origin); parameters: species or system Homo sapiens
[16] = Half life of compound in PBS buffer; format: physicochemical
[17] = Oral bioavailability in rat at 5 mg/kg; format: ADME, organism-based; settings: in vivo
MG-63 = test: Antitumor activity against human MG-63 cells xenografted in osteosarcoma mouse model assessed as tumor growth inhibition at 5 mg/kg relative to control; format: functional; settings: read-out: TGI
HEK293 = test: Antitumor activity against human HEK293 cells xenografted in […] assessed as tumor growth inhibition at 10 mg/kg relative to control; format: functional; settings: read-out: TGI
[18] = Oral bioavailability in mouse at 10 mg/kg; format: ADME, organism-based; settings: in vivo
[19] = In vivo inhibition of WNT1 in mouse model assessed as reduction in tumor volume by measuring T/C ratio at 1 mg/kg; format: functional
[20] = In vivo inhibition of WNT1 in mouse model assessed as reduction in tumor volume by measuring T/C ratio at 3 mg/kg; format: functional

solubility [1]: < 1 µg/mL
bioavailability [2]: < 1%
SMILES: O=C(COc1ccc(-n2ccnc2)cc1)Nc1ccc(-c2ccccc2)cc1

efflux ratio [3]: 2.7
SMILES: Cc1cc(N2C[C@@H](C)N[C@@H](C)C2)ncc1-c1ccc(-c2nc3c(ccn3C)c(=O)[nH]2)cc1

bioavailability [4]: 60%
SMILES: O=c1[nH]c(N2CCC3(CC2)CN(CCO)c2cc(F)cc(F)c23)nc2c1CCCC2
inhibition in vivo at 300 mg/kg (COLO 320): 52%

solubility [5]: 72 µg/mL (≈ 211 µM)
SMILES: COc1ccccc1N1CCN(c2nc3c(c(=O)[nH]2)CCCC3)CC1

IC50 [6]: 12 nM
SMILES: CCCn1c(SCC(=O)Nc2nc3ccc(OC)cc3s2)nnc1-c1ccncc1

bioavailability [9]: 72%
bioavailability [10]: 72%
IC50 [6]: 0.8 nM
bioavailability [11]: 96%
SMILES: CC(=O)N1CCN(c2ccc(NC(=O)Cc3cnc(-c4ccnc(F)c4)c(C)c3)nc2)CC1
inhibition in vivo at 0.3 mg/kg [7]: 15%
inhibition in vivo at 1 mg/kg [8]: 74%
inhibition in vivo at 3 mg/kg [12]: 84%

IC50 (cells): 2000 nM
SMILES: NS(=O)(=O)c1ccc(NC(=S)N2CCN(C/C=C/c3ccccc3)CC2)cc1

Ki [13]: 27900 nM
SMILES: CCc1ccc(OCC(=O)Nc2sc(C)c(C)c2C(N)=O)c(F)c1

SMILES: CC(=O)N[C@@H](CCCNC(=N)N)C(=O)N[C@@H](CCC(=O)O)C(=O)N[C@H]1CCCCn2cc(nn2)CCCCCc2cn(nn2)CCCC[C@H](C(=O)N[C@H](CCC(=O)O)C(N)=O)NC(=O)CNC(=O)[C@@H](CC(=O)O)NC(=O)CNC1=O
Kd [14]: 2800 nM

IC50 [6]: 0.5 nM
SMILES: Cc1cc(-c2ccc(CNC(=O)c3ccc4c(c3)[nH]c3ccccc34)cc2F)ccn1

IC50 [15]: 1.9 nM
half-life [16]: 2.8 h
SMILES: N#Cc1ccc(Oc2ccc(NC(=O)CCSc3nc4ccccc4c(=O)[nH]3)cc2)cc1

IC50 [6]: 58 nM
SMILES: COc1ccc(-n2c(C(=O)NCC(=O)Nc3nc4ccc(OC)cc4s3)nc3ccccc3c2=O)cc1

Kd [14]: 440 nM
SMILES: CN(C)c1ccc2c(-c3ccc(C(=O)NCCCCCC(=O)N[C@@H](CCCNC(=N)N)C(=O)N[C@@H](CCC(=O)O)C(=O)N[C@H]4CCn5cc(nn5)-c5cc(C(=O)O)cc(c5)C5=CN(CC[C@@H](C(=O)N[C@@H](CCC(=O)O)C(N)=O)NC(=O)CNC(=O)[C@H](CC(=O)O)NC(=O)CNC4=O)NN5)cc3C(=O)[O-])c3ccc(=[N+](C)C)cc-3oc2c1

bioavailability [17]: 18%
SMILES: COCCNc1cc(C)c(-c2ccc(-c3nc4c(CO)cccc4c(=O)[nH]3)cc2)cn1

SMILES: O=C(Nc1cccc2cccnc12)c1ccc(N2C(=O)[C@@H]3[C@H](C2=O)[C@@H]2C=C[C@H]3C2)cc1
inhibition in vivo at 5 mg/kg (MG-63): 71%

bioavailability [18]: 100%
SMILES: Cn1c(=O)c2c(ncn2CC(=O)Nc2ccc(-c3ccccc3)nn2)n(C)c1=O [ETC-159]
inhibition in vivo at 10 mg/kg (HEK293): 94%

IC50 [6]: 1 nM
SMILES: Cc1cc(-c2ncc(CC(=O)Nc3ccc(-c4cnccn4)cn3)cc2C)ccn1 [WNT-974]
inhibition in vivo at 1 mg/kg [19]: 47%
inhibition in vivo at 3 mg/kg [20]: 63%
